*1 amine or outer side, *2 acyl side, *3 side chain or, on linkers, in order; H or OH if unused. Where a SMILES comes first, the peptide text is derived from it. Bridges are numbered along the chain shown (N, C = ends). [ ]: non-standard residue; d: D form. Phe(4-guanidino) = N=C(N)Nc1ccc(C[C@H](N)C(=O)O)cc1; X76 = CN(CCC[C@@H](C(=O)[*:2])N(C)[*:1])S(C)(=O)=O; X23 = O=C([C@H](Cc1ccc(C(F)(F)F)nc1)N[*:1])[*:2]; X77 = O=C([C@H](Cc1cnn(C2CCOCC2)c1)N[*:1])[*:2]; Ala(pyrimidin-5-yl) = N[C@@H](Cc1cncnc1)C(=O)O; Phe(3-COOH) = N[C@@H](Cc1cccc(C(=O)O)c1)C(=O)O; NMe3Pal(6-Me) = CN[C@@H](Cc1ccc(C)nc1)C(=O)O; X6 = O=C([C@H](Cc1cnn(C2COC2)c1)N[*:1])[*:2]; NMePhe(3-Me) = CN[C@@H](Cc1cccc(C)c1)C(=O)O; X25 = O=C([C@H](Cc1ccc(F)nc1)N[*:1])[*:2]; X30 = O=C([C@H](Cc1ncccc1F)N[*:1])[*:2]; NMeAha = CN[C@@H](CCN=[N+]=[N-])C(=O)O; Nle(5,5-F2) = CC(F)(F)CC[C@H](N)C(=O)O; 1Nal = N[C@@H](Cc1cccc2ccccc12)C(=O)O; Ala(4-THP) = N[C@@H](CC1CCOCC1)C(=O)O; NHCH2CH2SCH2CO = O=C(CSCCN[*:1])[*:2]; Phe(2-F) = N[C@@H](Cc1ccccc1F)C(=O)O; X31 = O=C([C@H](CCC1CC1)N[*:1])[*:2]; NMe3Pal = CN[C@@H](Cc1cccnc1)C(=O)O; X1 = O=C(C12CC(CN[*:1])(C1)C2)[*:2]; X38 = NC(=O)CCCN(CC(=O)[*:2])[*:1]; Ala(cPr) = N[C@@H](CC1CC1)C(=O)O; NMeF = CN[C@@H](Cc1ccccc1)C(=O)O; PhLac = O=C(O)[C@@H](O)Cc1ccccc1; 3Pal = N[C@@H](Cc1cccnc1)C(=O)O; Ahp(2) = CCCCC[C@H](N)C(=O)O; Cba = N[C@@H](CC1CCC1)C(=O)O; hLeu = CC(C)CC[C@H](N)C(=O)O; αMeC = C[C@](N)(CS)C(=O)O; NMeA = CN[C@@H](C)C(=O)O; Nle = CCCC[C@H](N)C(=O)O; Pra = C#CC[C@H](N)C(=O)O; Nva = CCC[C@H](N)C(=O)O; AEEA = NCCOCCOCC(=O)O
The compounds below were run against KRAS-G12D protein (Homo sapiens, UniProt P01116, G12D) (assay: SOS-mediated nucleotide exchange assay (BODIPY-GDP / Tb-streptavidin TR-FRET)).
KRAS-G12D protein, sequence (P01116 1-188 isoform P01116-2 G12D): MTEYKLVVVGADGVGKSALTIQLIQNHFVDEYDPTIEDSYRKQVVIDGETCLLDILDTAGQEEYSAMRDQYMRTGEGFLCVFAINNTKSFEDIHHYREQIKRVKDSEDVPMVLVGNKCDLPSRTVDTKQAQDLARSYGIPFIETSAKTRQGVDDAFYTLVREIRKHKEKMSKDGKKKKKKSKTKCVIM
Format: biochemical

| SMILES | EC50 |
| --- | --- |
| C[C@H]1C(=O)N[C@@H](Cc2cccnc2)C(=O)N[C@@H](CC2CC2)C(=O)N[C@@H](Cc2ccccc2F)C(=O)N[C@@H](CCC(C)(F)F)C(=O)N(C)[C@@H](Cc2ccccc2)C(=O)NCC23CC(C2)(C3)C(=O)O[C@@H](Cc2ccccc2)C(=O)N1C [compound 289, cyclo(FLac-NMeA-3Pal-cPrA-Phe2F-Nle3F2-NMeF-amBCP)] (cyclo([3Pal][Ala(cPr)][Phe(2-F)][Nle(5,5-F2)][NMeF][X1][PhLac][NMeA])) | 9 nM |
| CCCC[C@@H]1NC(=O)[C@H](Cc2cccnc2)NC(=O)[C@H](CCCN(C)S(C)(=O)=O)N(C)C(=O)[C@H](Cc2ccccc2)OC(=O)C23CC(CNC(=O)[C@H](Cc4cccnc4)N(C)C(=O)[C@H](CCCC)NC(=O)[C@H](Cc4ccccc4F)NC1=O)(C2)C3 [compound 406, cyclo(FLac-NMeOmSuf-3Pal-Nle-Phe2F-Nle-NMe3Pal-amBCP)] (cyclo([3Pal][Nle][Phe(2-F)][Nle][NMe3Pal][X1][PhLac][X76])) | 26 nM |
| CCCC[C@@H]1NC(=O)[C@H](Cc2ccc(F)nc2)NC(=O)[C@H](C)N(C)C(=O)[C@H](Cc2ccccc2)OC(=O)C23CC(CNC(=O)[C@H](Cc4ccccc4)N(C)C(=O)[C@H](CCCC)NC(=O)[C@H](Cc4ccccc4F)NC1=O)(C2)C3 [compound 231, cyclo(FLac-NMeA-4F3Pal-Nle-Phe2F-Nle-NMeF-amBCP)] (cyclo([NMeA][X25][Nle][Phe(2-F)][Nle][NMeF][X1][PhLac])) | 72.4 nM |
| CC(C)CC[C@@H]1NC(=O)[C@H](Cc2ccccc2F)NC(=O)[C@H](CC2CC2)NC(=O)[C@H](Cc2cncnc2)NC(=O)[C@H](C)N(C)C(=O)[C@H](Cc2ccccc2)OC(=O)C23CC(CNC(=O)[C@H](Cc4ccccc4)N(C)C1=O)(C2)C3 [compound 260, cyclo(FLac-NMeA-PyrimAla-cPrA-Phe2F-hL-NMeF-amBCP)] (cyclo([Ala(cPr)][Phe(2-F)][hLeu][NMeF][X1][PhLac][NMeA][Ala(pyrimidin-5-yl)])) | 1.95 nM |
| CCCC[C@@H]1NC(=O)[C@H](Cc2ccc(O)cc2)NC(=O)[C@H](CCC)NC(=O)[C@H](Cc2ccc(O)cc2)NC(=O)[C@H](CCCNC(=N)N)NC(=O)[C@H](Cc2ccccc2)NC(=O)CSCCNC(=O)[C@H](Cc2ccccc2)N(C)C1=O [compound 76, cyclo(F-R-Y-Nva-Y-Nle-NMeF-Cysteamine-ClAc)] (cyclo(FRY[Nva]Y[Nle][NMeF][NHCH2CH2SCH2CO])) | 5310 nM |
| C#CC[C@@H]1NC(=O)[C@H](CC2CCC2)NC(=O)[C@H](Cc2cccnc2)NC(=O)[C@H](CCCNC(=N)N)NC(=O)[C@H](Cc2ccccc2)NC(=O)CSC[C@@](C)(C(N)=O)NC(=O)[C@H](Cc2ccccc2)N(C)C(=O)[C@H](CCCC)NC1=O [compound 51, cyclo(F-R-3Pal-cBuA-Pra-Nle-NMeF-aMeCl-ClAc)] ({CH2CO}-FR[3Pal][Cba][Pra][Nle][NMeF][αMeC]-NH2; thioether N-8) | 298 nM |
| CCCCC[C@@H]1NC(=O)[C@H](Cc2ccc(OC)cc2)NC(=O)[C@H](CC2CCC2)NC(=O)[C@H](Cc2ccc(N3CCC[C@H]3CN)cc2)NC(=O)[C@H](CCCNC(=N)N)NC(=O)[C@H](Cc2ccccc2)NC(=O)CSC[C@@](C)(C(N)=O)NC(=O)[C@H](Cc2ccccc2)N(C)C1=O [compound 392, cyclo(F-R-Phe4SamPyrr-cBuA-TyrOMe-Ahp-NMeF-aMeCl-ClAc)] | 8.59 nM |
| CCCC[C@@H]1NC(=O)[C@H](Cc2ccc(C(F)(F)F)nc2)NC(=O)[C@H](CCN=[N+]=[N-])N(C)C(=O)[C@H](Cc2ccccc2)OC(=O)C23CC(CNC(=O)[C@H](Cc4cccnc4)N(C)C(=O)[C@H](CCCC)NC(=O)[C@H](Cc4ccccc4F)NC1=O)(C2)C3 [compound 241, cyclo(FLac-NMeDabN3-4CF33Pal-Nle-Phe2F-Nle-NMe3Pal-amBCP)] (cyclo([NMe3Pal][X1][PhLac][NMeAha][X23][Nle][Phe(2-F)][Nle])) | 435 nM |
| CCCCC[C@@H]1NC(=O)[C@H](Cc2ccc(OC)cc2)NC(=O)[C@H](CC2CCC2)NC(=O)[C@H](Cc2ccc(N3CCC[C@@H]3CN)cc2)NC(=O)[C@H](CCCNC(=N)N)NC(=O)[C@H](Cc2ccccc2)NC(=O)CSC[C@@](C)(C(N)=O)NC(=O)[C@H](Cc2ccccc2)N(C)C1=O [compound 391, cyclo(F-R~Phe4RamPyrr-cBuA-TyrOMe-Abp-NMeF-aMeCl-ClAc)] | 6.78 nM |
| CCCCC[C@@H]1NC(=O)[C@H](Cc2ccc(OC)cc2)NC(=O)[C@H](CC2CCC2)NC(=O)[C@H](Cc2ccc(=O)[nH]c2)NC(=O)[C@H](CCCNC(=N)N)NC(=O)[C@H](Cc2ccccc2)NC(=O)CSC[C@@](C)(C(N)=O)NC(=O)[C@H](Cc2ccccc2)N(C)C1=O [compound 369, cyclo(F-R-4CO3Pal-cBuA-TyrOMe-Abp-NMeF-aMeCl-ClAc)] | 19.4 nM |
| CCCCC[C@@H]1NC(=O)[C@H](Cc2ccc(OC)cc2)NC(=O)[C@H](CC2CCC2)NC(=O)[C@H](Cc2cccnc2)NC(=O)[C@H](CCCNC(=N)N)NC(=O)[C@H](Cc2ccccc2)NC(=O)CSC[C@@](C)(C(N)=O)NC(=O)[C@H](Cc2ccc(C)nc2)N(C)C1=O [compound 377, cyclo(F-R-3Pal-cBuA-TyrOMe-Ahp-NMe3Pal4Me-aMeCl-ClAc)] ({CH2CO}-FR[3Pal][Cba]Y(Me)[Ahp(2)][NMe3Pal(6-Me)][αMeC]-NH2; thioether N-8) | 8.11 nM |
| CCCC[C@@H]1NC(=O)[C@H](Cc2ccc(NC(=N)N)cc2)NC(=O)[C@H](CCCNC(=N)N)NC(=O)[C@H](Cc2cccc3ccccc23)NC(=O)CNC(=O)[C@@H](C)NC(=O)[C@H](Cc2ccccc2)N(C)C(=O)[C@H](CCCC)NC(=O)[C@H](Cc2ccc(O)cc2)NC1=O [compound 200, cyclo(1Nal-R-Phe4Gn-Nle-Y-Nle-NMeF-dA-G)] (cyclo([1Nal]R[Phe(4-guanidino)][Nle]Y[Nle][NMeF][dA]G)) | 52.9 nM |
| CCCC[C@@H]1NC(=O)[C@H](Cc2ccc(O)cc2)NC(=O)[C@H](CC2CCOCC2)NC(=O)[C@H](Cc2ccc(NC(=N)N)cc2)NC(=O)[C@H](CCCNC(=N)N)NC(=O)[C@H](Cc2cccc3ccccc23)NC(=O)CSC[C@H](C(=O)O)NC(=O)[C@H](Cc2ccccc2)N(C)C1=O [compound 147, cyclo(INal-R-Phe4Gn-AlaTHP4-Y-Nle-NMeF-dC-ClAc)] ({CH2CO}-[1Nal]R[Phe(4-guanidino)][Ala(4-THP)]Y[Nle][NMeF][dC]-OH; thioether N-8) | 512 nM |
| CCCCC[C@@H]1NC(=O)[C@H](Cc2ccc(OC)cc2)NC(=O)[C@H](CC2CCC2)NC(=O)[C@H](Cc2ccc(NC(=N)N)cc2)NC(=O)CN(CCCC(N)=O)C(=O)[C@H](Cc2ccccc2)NC(=O)CSC[C@@](C)(C(N)=O)NC(=O)[C@H](Cc2ccccc2)N(C)C1=O [compound 386, cyclo(F-Cmpg-Phe4Gn-cBuA-TyrOMe-Abp-NMeF-aMeCl-ClAc)] ({CH2CO}-F[X38][Phe(4-guanidino)][Cba]Y(Me)[Ahp(2)][NMeF][αMeC]-NH2; thioether N-8) | 134 nM |
| Cc1cccc(C[C@H]2C(=O)NCC34CC(C3)(C4)C(=O)O[C@@H](Cc3ccccc3)C(=O)N(C)[C@@H](C)C(=O)N[C@@H](Cc3cncnc3)C(=O)N[C@@H](CC3CC3)C(=O)N[C@@H](Cc3ccccc3F)C(=O)N[C@@H](CCC3CC3)C(=O)N2C)c1 [compound 334, cyclo(FLac-NMeA-PyrimAla-cPrA-Phe2F-hcPrA-NMePhe3Me-amBCP)] (cyclo([Ala(cPr)][Phe(2-F)][X31][NMePhe(3-Me)][X1][PhLac][NMeA][Ala(pyrimidin-5-yl)])) | 2 nM |
| CCCC[C@@H]1NC(=O)[C@H](Cc2ccc(F)nc2)NC(=O)[C@H](C)N(C)C(=O)[C@H](Cc2ccccc2)OC(=O)C23CC(CNC(=O)[C@H](Cc4ccccc4)N(C)C(=O)[C@H](CCCC)NC(=O)[C@H](Cc4ncccc4F)NC1=O)(C2)C3 [compound 228, cyclo(FLac-NMeA-4F3Pal-Nle-2Pal6F-Nle-NMeF-amBCP)] (cyclo([NMeA][X25][Nle][X30][Nle][NMeF][X1][PhLac])) | 870 nM |
| CC(C)CC[C@@H]1NC(=O)[C@H](Cc2ccccc2F)NC(=O)[C@H](CC2CC2)NC(=O)[C@H](Cc2cnn(C3COC3)c2)NC(=O)[C@H](C)N(C)C(=O)[C@H](Cc2ccccc2)OC(=O)C23CC(CNC(=O)[C@H](Cc4cccnc4)N(C)C1=O)(C2)C3 [compound 301, cyclo(FLac-NMeA-AlaPyz1Ox-cPrA-Phe2F-hL-NMe3Pal-amBCP)] (cyclo([Ala(cPr)][Phe(2-F)][hLeu][NMe3Pal][X1][PhLac][NMeA][X6])) | 2.17 nM |
| CCCCC[C@@H]1NC(=O)[C@H](Cc2ccc(O)cc2)NC(=O)[C@H](CC(C)C)NC(=O)[C@H](Cc2ccc(O)cc2)NC(=O)[C@H](CCCNC(=N)N)NC(=O)[C@H](Cc2ccccc2)NC(=O)CSC[C@@H](C(=O)NCCOCCOCC(=O)NCCOCCOCC(N)=O)NC(=O)[C@H](Cc2ccccc2)N(C)C1=O [compound 58, cyclo(F-R-Y-L-Y-Ahp-NMeF-C4-ClAc)] ({CH2CO}-FRYLY[Ahp(2)][NMeF]C[AEEA][AEEA]-NH2; thioether N-8) | 436 nM |
| CCCC[C@@H]1NC(=O)[C@H](Cc2cnn(C3CCOCC3)c2)NC(=O)[C@H](C)N(C)C(=O)[C@H](Cc2ccccc2)OC(=O)C23CC(CNC(=O)[C@H](Cc4ccccc4)N(C)C(=O)[C@H](CCCC)NC(=O)[C@H](Cc4ccccc4F)NC1=O)(C2)C3 [compound 308, cyclo(FLac-NMeA-AlaPyzlTHP4-Nle-Phe2F-Nle-NMeF-amBCP)] (cyclo([NMeA][X77][Nle][Phe(2-F)][Nle][NMeF][X1][PhLac])) | 6.86 nM |
| CC(C)CC[C@@H]1NC(=O)[C@H](Cc2cnn(C3COC3)c2)NC(=O)[C@H](CC2CC2)NC(=O)[C@H](Cc2cncnc2)NC(=O)[C@H](C)N(C)C(=O)[C@H](Cc2ccccc2)OC(=O)C23CC(CNC(=O)[C@H](Cc4ccccc4)N(C)C1=O)(C2)C3 [compound 300, cyclo(FLac-NMeA-PyrimAla-cPrA-AlaPyz1Ox-hL-NMeF-amBCP)] (cyclo([Ala(cPr)][X6][hLeu][NMeF][X1][PhLac][NMeA][Ala(pyrimidin-5-yl)])) | 254 nM |
| CCCC[C@@H]1NC(=O)[C@H](CCCCN)NC(=O)[C@H](CCCNC(=N)N)NC(=O)[C@H](Cc2cccc3ccccc23)NC(=O)CSCCNC(=O)[C@H](Cc2ccccc2)N(C)C(=O)[C@H](CCCC)NC(=O)[C@H](Cc2cccc(C(=O)O)c2)NC1=O [compound 197, cyclo(1Nal-R-K-Nle-Phe3COOH-Nle-NMeF-Cysteamine)-ClAc] (cyclo([1Nal]RK[Nle][Phe(3-COOH)][Nle][NMeF][NHCH2CH2SCH2CO])) | 2120 nM |
